Drawing on paper PMC3639963, “A New Class of Small Molecule Inhibitor of BMP Signaling” (PLoS ONE, 2013), this text covers inhibition for 2 molecules.

Usually inhibition stands for the change of the read-out against control, counted positive when it falls.

Holding throughout (experiment): Nanosyn kinase profiling
Holding throughout (format): biochemical
What all share (conditions): read-out: Percentage inhibition; for inhibition at 0.1 µM: 0.1 µM inhibitor; for inhibition at 1 µM: 1 µM inhibitor

One assay concerns the target T1, SRMS (Homo sapiens, UniProt Q9H3Y6).
T1 construct: purchased Nanosyn (enzymatic panel); SGC in-house recombinant human kinases (DSF panel); Invitrogen (ALK1-6)
An outline of the steps: (§1)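 Percent inhibition of each kinase was measured with the inhibitor at 0.1 µM and at 1 µM, as part of a 200-kinase human selectivity panel.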

For another assay, the target named is T2, p38δ (Homo sapiens, UniProt O15264).
T2 construct: purchased Nanosyn (enzymatic panel); SGC in-house recombinant human kinases (DSF panel); Invitrogen (ALK1-6)
T2 sequence (O15264 1-365): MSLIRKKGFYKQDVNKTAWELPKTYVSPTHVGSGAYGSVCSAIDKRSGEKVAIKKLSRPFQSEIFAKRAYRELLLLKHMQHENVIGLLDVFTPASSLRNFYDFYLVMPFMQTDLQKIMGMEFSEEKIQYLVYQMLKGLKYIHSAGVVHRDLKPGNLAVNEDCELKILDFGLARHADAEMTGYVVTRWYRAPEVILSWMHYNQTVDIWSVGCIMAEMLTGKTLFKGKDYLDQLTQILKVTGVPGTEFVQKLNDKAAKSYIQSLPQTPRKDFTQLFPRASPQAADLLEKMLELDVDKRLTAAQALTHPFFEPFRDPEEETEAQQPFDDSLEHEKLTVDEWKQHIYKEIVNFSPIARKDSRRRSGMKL
In a few lines:
as §1

For another assay, the target named is T3, CLK3 (Homo sapiens, UniProt P49761).
T3 construct: purchased Nanosyn (enzymatic panel); SGC in-house recombinant human kinases (DSF panel); Invitrogen (ALK1-6)
T3 sequence (P49761 whole entry): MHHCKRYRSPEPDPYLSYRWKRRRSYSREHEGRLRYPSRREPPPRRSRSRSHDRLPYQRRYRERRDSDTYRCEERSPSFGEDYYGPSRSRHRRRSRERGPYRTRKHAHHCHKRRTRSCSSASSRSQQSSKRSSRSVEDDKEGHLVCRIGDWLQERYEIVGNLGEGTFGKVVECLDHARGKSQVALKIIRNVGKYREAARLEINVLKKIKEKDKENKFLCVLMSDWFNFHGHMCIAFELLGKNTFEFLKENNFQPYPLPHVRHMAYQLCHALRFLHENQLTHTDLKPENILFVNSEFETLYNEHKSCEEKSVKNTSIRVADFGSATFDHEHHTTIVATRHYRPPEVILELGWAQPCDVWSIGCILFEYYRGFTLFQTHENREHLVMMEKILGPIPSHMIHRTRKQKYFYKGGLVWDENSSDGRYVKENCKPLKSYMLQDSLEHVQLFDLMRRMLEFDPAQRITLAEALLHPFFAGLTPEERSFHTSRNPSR
In a few lines: as §1

The target in a further assay is T4, PIM3 (Homo sapiens, UniProt Q86V86).
T4 construct: purchased Nanosyn (enzymatic panel); SGC in-house recombinant human kinases (DSF panel); Invitrogen (ALK1-6)
In a few lines:
as §1

Another assay addresses T5, SPHK2 (Homo sapiens, UniProt Q9NRA0).
T5 construct: purchased Nanosyn (enzymatic panel); SGC in-house recombinant human kinases (DSF panel); Invitrogen (ALK1-6)
T5 sequence (Q9NRA0 1-654): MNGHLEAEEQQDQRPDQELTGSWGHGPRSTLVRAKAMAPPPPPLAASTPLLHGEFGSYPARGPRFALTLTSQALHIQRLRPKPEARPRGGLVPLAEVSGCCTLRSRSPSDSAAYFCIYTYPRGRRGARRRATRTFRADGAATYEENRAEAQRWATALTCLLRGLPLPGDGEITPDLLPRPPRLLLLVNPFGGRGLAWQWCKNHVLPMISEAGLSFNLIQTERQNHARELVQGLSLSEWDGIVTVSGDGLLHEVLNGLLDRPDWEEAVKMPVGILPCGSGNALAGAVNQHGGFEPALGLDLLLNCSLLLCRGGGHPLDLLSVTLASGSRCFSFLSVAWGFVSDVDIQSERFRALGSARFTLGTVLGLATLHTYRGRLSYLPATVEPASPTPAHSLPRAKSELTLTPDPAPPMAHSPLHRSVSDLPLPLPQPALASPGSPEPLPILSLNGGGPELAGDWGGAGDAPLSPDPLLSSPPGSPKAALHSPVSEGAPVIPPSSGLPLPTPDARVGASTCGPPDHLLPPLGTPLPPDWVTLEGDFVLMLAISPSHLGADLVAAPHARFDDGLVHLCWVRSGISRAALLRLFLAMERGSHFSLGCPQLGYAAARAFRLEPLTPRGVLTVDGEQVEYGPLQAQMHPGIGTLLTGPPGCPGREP
In a few lines: as §1

The next assay deals with T6, MAPK1 (Homo sapiens, UniProt P28482).
T6 construct: purchased Nanosyn (enzymatic panel); SGC in-house recombinant human kinases (DSF panel); Invitrogen (ALK1-6)
An outline of the steps:
as §1

Another assay concerns the target T7, LRRK2 (Homo sapiens, UniProt Q5S007).
T7 construct: purchased Nanosyn (enzymatic panel); SGC in-house recombinant human kinases (DSF panel); Invitrogen (ALK1-6)
An outline of the steps: as §1

A further assay deals with T8, TRKA (Homo sapiens, UniProt P04629).
T8 construct: purchased Nanosyn (enzymatic panel); SGC in-house recombinant human kinases (DSF panel); Invitrogen (ALK1-6)
T8 sequence (P04629 33-796): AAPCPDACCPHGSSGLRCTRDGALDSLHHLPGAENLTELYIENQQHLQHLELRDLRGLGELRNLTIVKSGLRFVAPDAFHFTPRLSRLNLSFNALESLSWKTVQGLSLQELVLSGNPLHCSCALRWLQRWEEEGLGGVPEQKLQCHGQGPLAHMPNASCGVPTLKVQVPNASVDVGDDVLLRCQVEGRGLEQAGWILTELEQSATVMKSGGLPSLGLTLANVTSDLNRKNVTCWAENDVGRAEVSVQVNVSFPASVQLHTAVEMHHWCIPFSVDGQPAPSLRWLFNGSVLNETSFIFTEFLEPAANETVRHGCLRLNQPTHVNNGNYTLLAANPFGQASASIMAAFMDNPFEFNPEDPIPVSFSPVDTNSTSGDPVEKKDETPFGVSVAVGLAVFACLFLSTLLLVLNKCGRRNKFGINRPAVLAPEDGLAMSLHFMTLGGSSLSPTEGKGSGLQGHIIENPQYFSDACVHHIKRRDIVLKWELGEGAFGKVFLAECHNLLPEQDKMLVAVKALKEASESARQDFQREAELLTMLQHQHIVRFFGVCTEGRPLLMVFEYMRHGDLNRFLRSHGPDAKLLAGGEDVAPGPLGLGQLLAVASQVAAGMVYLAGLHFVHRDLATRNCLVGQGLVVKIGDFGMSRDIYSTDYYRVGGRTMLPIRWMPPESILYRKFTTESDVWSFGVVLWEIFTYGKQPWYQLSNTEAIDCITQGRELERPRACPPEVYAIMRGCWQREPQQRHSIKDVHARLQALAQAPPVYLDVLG
An outline of the steps: as §1

A further assay addresses T9, MAP4K2 (Homo sapiens, UniProt Q12851).
T9 construct: purchased Nanosyn (enzymatic panel); SGC in-house recombinant human kinases (DSF panel); Invitrogen (ALK1-6)
T9 sequence (Q12851 1-820): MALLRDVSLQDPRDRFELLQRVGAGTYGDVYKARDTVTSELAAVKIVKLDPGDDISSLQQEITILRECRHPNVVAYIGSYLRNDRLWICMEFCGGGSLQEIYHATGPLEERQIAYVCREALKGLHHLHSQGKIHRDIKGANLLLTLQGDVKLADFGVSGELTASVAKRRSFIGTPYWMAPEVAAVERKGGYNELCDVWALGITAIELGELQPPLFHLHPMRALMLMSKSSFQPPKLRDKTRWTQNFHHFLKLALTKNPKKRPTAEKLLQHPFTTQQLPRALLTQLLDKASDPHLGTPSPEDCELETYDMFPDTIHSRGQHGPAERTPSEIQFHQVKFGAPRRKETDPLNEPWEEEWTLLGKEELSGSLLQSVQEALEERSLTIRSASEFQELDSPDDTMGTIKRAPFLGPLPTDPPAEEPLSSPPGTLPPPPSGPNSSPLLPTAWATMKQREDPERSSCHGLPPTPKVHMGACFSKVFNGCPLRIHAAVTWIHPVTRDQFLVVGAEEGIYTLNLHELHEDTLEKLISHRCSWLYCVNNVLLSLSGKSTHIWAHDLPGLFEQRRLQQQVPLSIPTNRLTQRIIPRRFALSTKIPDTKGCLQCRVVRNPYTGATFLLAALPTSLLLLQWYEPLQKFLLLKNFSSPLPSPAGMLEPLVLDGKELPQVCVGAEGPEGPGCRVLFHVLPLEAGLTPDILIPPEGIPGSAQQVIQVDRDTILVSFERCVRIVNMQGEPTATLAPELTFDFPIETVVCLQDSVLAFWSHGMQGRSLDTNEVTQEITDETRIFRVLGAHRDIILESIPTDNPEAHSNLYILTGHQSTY
An outline of the steps: as §1

Another assay addresses T10, MEK1 (Homo sapiens, UniProt Q02750).
T10 construct: purchased Nanosyn (enzymatic panel); SGC in-house recombinant human kinases (DSF panel); Invitrogen (ALK1-6)
An outline of the steps:
as §1

T1 sequence (Q9H3Y6 whole entry): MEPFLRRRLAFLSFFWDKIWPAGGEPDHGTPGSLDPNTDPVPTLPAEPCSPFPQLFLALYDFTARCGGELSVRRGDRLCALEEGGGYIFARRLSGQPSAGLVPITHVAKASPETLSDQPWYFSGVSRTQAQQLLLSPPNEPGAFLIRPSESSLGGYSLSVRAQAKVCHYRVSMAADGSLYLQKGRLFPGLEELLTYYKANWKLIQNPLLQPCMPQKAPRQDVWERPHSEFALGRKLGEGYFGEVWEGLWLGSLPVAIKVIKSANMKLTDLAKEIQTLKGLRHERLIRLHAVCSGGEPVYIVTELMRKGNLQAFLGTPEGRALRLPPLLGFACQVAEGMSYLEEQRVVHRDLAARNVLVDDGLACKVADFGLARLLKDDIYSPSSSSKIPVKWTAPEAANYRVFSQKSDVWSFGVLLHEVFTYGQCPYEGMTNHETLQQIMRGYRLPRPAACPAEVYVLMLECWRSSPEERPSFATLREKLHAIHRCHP
T10 sequence (Q02750 whole entry): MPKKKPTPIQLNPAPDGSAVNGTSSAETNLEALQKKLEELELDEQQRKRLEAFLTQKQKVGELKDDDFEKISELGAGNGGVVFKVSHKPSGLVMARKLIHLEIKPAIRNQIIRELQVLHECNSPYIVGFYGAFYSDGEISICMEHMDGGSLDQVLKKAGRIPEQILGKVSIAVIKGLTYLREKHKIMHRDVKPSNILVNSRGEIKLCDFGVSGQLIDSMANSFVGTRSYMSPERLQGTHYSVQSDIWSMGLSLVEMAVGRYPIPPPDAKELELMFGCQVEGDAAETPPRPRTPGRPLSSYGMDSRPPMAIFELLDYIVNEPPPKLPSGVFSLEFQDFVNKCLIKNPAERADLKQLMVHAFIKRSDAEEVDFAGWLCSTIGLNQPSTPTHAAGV
T7 sequence (Q5S007 whole entry): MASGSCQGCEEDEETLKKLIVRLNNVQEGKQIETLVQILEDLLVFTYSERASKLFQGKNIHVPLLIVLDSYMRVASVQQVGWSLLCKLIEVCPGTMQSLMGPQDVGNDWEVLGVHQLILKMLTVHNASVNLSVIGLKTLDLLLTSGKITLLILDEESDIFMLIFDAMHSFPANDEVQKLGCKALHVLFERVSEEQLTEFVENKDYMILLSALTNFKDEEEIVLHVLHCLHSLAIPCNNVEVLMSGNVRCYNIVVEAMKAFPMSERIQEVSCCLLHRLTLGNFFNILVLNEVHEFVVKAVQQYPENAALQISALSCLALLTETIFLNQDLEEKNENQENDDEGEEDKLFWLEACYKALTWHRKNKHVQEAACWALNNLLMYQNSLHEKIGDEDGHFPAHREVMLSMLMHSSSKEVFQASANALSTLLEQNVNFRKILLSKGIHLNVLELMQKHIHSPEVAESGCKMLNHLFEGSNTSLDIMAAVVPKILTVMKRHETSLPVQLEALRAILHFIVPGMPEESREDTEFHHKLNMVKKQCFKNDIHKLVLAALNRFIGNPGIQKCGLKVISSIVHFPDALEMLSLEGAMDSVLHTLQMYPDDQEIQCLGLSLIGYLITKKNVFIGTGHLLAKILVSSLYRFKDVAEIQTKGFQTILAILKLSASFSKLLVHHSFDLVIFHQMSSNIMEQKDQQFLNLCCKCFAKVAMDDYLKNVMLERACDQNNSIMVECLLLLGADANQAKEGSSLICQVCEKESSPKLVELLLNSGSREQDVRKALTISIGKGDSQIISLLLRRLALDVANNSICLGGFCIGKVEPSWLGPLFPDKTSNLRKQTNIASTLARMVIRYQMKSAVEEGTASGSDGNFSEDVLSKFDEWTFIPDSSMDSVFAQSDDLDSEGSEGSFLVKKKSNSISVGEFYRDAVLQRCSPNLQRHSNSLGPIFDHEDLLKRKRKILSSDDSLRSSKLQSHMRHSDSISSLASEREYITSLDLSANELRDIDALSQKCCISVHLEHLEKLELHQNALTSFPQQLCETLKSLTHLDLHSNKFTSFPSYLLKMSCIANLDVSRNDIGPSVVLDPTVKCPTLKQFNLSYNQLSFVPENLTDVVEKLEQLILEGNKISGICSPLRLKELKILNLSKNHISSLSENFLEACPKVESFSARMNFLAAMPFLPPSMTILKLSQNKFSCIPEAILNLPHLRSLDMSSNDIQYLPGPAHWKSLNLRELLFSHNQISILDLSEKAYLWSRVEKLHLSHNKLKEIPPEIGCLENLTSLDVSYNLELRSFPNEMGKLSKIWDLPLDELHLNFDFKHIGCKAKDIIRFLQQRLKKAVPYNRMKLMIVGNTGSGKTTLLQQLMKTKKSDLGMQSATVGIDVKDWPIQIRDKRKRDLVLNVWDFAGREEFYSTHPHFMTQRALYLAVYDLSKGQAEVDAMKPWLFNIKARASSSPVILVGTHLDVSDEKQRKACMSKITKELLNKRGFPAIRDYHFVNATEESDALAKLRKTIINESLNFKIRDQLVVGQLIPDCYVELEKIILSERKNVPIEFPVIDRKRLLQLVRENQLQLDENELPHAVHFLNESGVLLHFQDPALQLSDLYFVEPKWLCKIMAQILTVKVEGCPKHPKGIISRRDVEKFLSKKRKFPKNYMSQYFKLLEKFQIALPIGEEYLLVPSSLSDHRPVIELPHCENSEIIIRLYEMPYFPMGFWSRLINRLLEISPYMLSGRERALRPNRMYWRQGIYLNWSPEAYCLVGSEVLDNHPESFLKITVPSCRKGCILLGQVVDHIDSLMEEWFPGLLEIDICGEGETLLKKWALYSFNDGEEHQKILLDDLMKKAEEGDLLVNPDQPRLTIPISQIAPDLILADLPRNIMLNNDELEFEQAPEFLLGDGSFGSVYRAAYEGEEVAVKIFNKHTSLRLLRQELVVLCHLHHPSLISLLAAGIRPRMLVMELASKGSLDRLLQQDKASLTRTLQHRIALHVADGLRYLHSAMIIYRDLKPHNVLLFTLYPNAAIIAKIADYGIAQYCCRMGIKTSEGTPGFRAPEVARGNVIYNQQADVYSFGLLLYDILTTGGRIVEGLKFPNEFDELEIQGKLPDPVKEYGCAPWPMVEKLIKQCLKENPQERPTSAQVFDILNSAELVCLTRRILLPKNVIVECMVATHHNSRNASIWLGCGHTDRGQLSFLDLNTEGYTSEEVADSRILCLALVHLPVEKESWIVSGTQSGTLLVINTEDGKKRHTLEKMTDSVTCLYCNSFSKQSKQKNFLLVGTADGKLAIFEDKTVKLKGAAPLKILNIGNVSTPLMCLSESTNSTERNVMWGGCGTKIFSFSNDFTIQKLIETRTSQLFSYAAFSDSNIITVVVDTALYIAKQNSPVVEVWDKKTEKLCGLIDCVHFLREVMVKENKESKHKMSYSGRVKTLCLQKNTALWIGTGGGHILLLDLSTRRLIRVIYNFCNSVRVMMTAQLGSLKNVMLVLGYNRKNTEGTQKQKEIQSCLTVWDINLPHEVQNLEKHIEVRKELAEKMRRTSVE

On to `COc1cc(-c2cc(-c3cccc(O)c3)cnc2N)cc(OC)c1OC` [K02288, 3-[6-amino-5-(3,4,5-trimethoxy-phenyl)-pyridin-3-yl]-phenol], for which the inhibition at 0.1 µM on SRMS was 0.8%; at p38δ, -3%; at CLK3 it was 1.4%; on PIM3, 2.3%; on SPHK2, -2%; at MAPK1, -3%. Further, the inhibition at 0.1 µM is 7.1% at LRRK2, 1.5% at TRKA, 18% at MAP4K2 and -1% on MEK1. The inhibition at 1 µM at SRMS is 17%; at p38δ, -3%; at CLK3, 1.5%; at PIM3, 5.9%; at SPHK2, 4.4%; on MAPK1, 9.9%. The inhibition at 1 µM was 27% at LRRK2, 2.8% on TRKA, 53% on MAP4K2 and 10% at MEK1.
Consider `c1ccc2c(-c3cnn4cc(-c5ccc(N6CCNCC6)cc5)cnc34)ccnc2c1` [LDN-193189], for which the inhibition at 0.1 µM is -1% on SRMS; 1.8% on p38δ; 0.5% on CLK3; 2% at PIM3; -1% at SPHK2; 2.6% at MAPK1. The inhibition at 0.1 µM at LRRK2 is 8.7%; at TRKA it was 1.9%; at MAP4K2 it was 21%; at MEK1, 1.4%. For the same molecule, the inhibition at 1 µM at SRMS was 8.9%; on p38δ it was 0.5%; on CLK3, 2.6%; on PIM3, -1%; at SPHK2, -3%; at MAPK1, 1.4%. Besides, the inhibition at 1 µM was 27% at LRRK2, 7.2% at TRKA, 65% on MAP4K2 and 1% at MEK1.
